The test system of test [1] is IEC6 cells. Kind of test: Fibrosis/EMT-related gene and protein expression in TGFβ1-induced EMT cell model. The class given is cell-based, rat. The following applies: for expression of fibrotic genes and proteins (Vimentin, αSMA): TGFβ1, oxamate 20 mmol/L, DCA 20 mmol/L or rotenone 10 nmol/L.
Test [2] concerns IEC6 cells. Kind of test: Glycolysis and metabolic gene expression in TGFβ1-induced cells. The following applies: TGFβ1 + 2DG vs TGFβ1, n = 7–8. The class given is cell-based, rat.
The subject of test [3] is IEC6 cells. Kind of test: Lactate determination in cell culture supernatant. The format is cell-based, rat. The settings on record: TGFβ1 10 ng/mL, 2DG 1 mmol/L, 7 days, n = 6.
Test [4] deals with IEC6 cells. Kind of test: Histone lactylation. The format is cell-based, rat. The following applies: exogenous lactate, Western blot, n = 3.
For another test, the system named is Smad2 or Smad3. Kind of test: Smad2/Smad3 phosphorylation after lactate treatment. The format is cell-based.

Each structure is given as a SMILES string.

As for `O=C(O)C(Cl)Cl` [DCA, sodium dichloroacetate], the “expression of fibrotic genes and proteins (Vimentin, αSMA)” value (from here on “expression … (Vimentin, αSMA)”) in the test with IEC6 cells [1] is “more pronounced reduction”.

For `O=CC[C@@H](O)[C@H](O)[C@H](O)CO` [Peptide 2DG, 2-Deoxy-D-glucose], the “glycolysis (GSEA-KEGG of gene expression)” value in the test on IEC6 cells [2] is reported as “effectively inhibited glycolysis”. Besides, the “lactate levels (TGFβ1-mediated extracellular lactate production)” value with IEC6 cells [3] is on record as “substantial reduction”. In the test on IEC6 cells [1] (TGFβ1 10 ng/mL, 2DG 1 mmol/L, 7 days), the “expression of fibrotic genes and proteins” value was “substantial reduction”.

Take `CC(O)C(=O)O` (stereo not drawn) [lactate]: the “site-specific histone lactylation (H2BK16la, H3K9la, H3K18la, H4K5la and H4K12la)” value in the test on IEC6 cells [4] is “induced overwhelming lactylation modifications”. Further, in the test on Smad2 or Smad3, the “phosphorylation of Smad2 or Smad3” value is reported as “did not alter”. In addition, the “expression of fibrotic genes after lactate stimulation (qRT-PCR)” value in the test on IEC6 cells [1] (lactate 10 mmol/L for 72 h, no TGFβ1, n = 6) was “significantly elevated”.

Turning to `NC(=O)C(=O)O` [oxamate], the “expression … (Vimentin, αSMA)” value with IEC6 cells [1] is “more pronounced reduction”.

On to `C=C(C)[C@H]1Cc2c(ccc3c2O[C@@H]2COc4cc(OC)c(OC)cc4[C@@H]2C3=O)O1` [rotenone], for which the “expression … (Vimentin, αSMA)” value in the test on IEC6 cells [1] was “increased the expression of fibrotic genes”.

The record behind these values is publication PMC11873616 (Acta Pharmaceutica Sinica. B, 2024).
